We go through one molecule from US7537765B2, “Inhibition of HIV-1 replication by disruption of the processing of the viral capsid-spacer peptide 1 protein” (priority 2003, dated 2009).

The target in test [1] is T1, HIV-1 protease (Human immunodeficiency virus type 1 group M subtype B, UniProt P12497). Kind of test: Cell-free fluorometric protease assay, synthetic peptide substrate. Type of test: biochemical. Also on record: DSB had no effect on HIV-1 protease function using a cell-free fluorometric assay. As to conditions: concentrations up to 50 μg/mL. The method, then:
It was previously determined that DSB had no effect on HIV-1 protease function using a cell-free fluorometric assay that characterized enzyme activity by following the cleavage of a synthetic peptide substrate. […] As a result of the observation that DSB blocks virus replication at a late step, studies were also performed using a recombinant form of the Gag protein, which is a more relevant system than the synthetic peptide substrate used in the initial assays.

In test [2] the test system is primary Clade B HIV-1 isolates. Kind of test: Virus inhibition assay, primary HIV-1 isolates in PBMC, p24 endpoint. Type of test: cell-based. The method, then:
A robust virus inhibition assay was used to evaluate the anti-viral activity of DSB against primary HIV-1 isolates propagated in PMBC. Briefly, serial dilutions of DSB were made in medium into 96-well tissue culture plates. 25-250 TCID50 of virus and 5×10^5 PHA-stimulated PBMCs were added to each well. On days 1, 3 and 5 post-infection, media was removed from each well and replaced with fresh media containing DSB at the appropriate concentration. On day 7 post-infection, culture supernatant was removed from each well for p24 detection of virus replication and 50% inhibitory concentrations (IC50) were calculated by standard methods.

Test [3] concerns HIV-1 infected MAGI cells. Type of test: cell-based. The conditions noted are these: HIV-1 infected MAGI cells. An excerpt: To distinguish the inhibitory activity of DSB against early and late replication targets, a multinuclear activation of a galactosidase indicator (MAGI) assay was used. In this assay, the targets are HeLa cells stably expressing CD4, CXCR4, CCR5 and a reporter construct consisting of the—galactosidase gene (modified to localize to the nucleus) driven by a truncated HIV-1 LTR. Infection of these cells results in expression of Tat that drives activation of the β-galactosidase reporter gene. Expression of β-galactosidase in infected cells is detected using the chromogenic substrate X-gal.

For test [4], the system named is HIV-1 infectious molecular clone pNL4-3. As to the kind of experiment: EM analysis of HeLa cells transfected with pNL4-3. In kind it is cell-based. The conditions noted are these: DSB-treated samples. From the text:
FIG. 3. EM analysis of DSB-treated HIV-1 infected cells. […] Virions generated in the presence of DSB are characterized by an absence of conical, mature cores. In these samples the cores are uniformly spherical and often acentric. Secondly, many virions display an electron dense layer inside the lipid bilayer but outside the core (indicated with arrows in the DSB-treated sample panels).
HeLa cells were transfected with HIV-1 infectious molecular clone pNL4-3 and treated as described previously with DSB. Following treatment, DSB-treated infected cells were fixed in glutaraldehyde and analyzed by EM.

The target of test [5] is T1, HIV-1 protease. Type of test: biochemical. The conditions noted are these: recombinant Gag, 50 μg/mL.
Test [6] concerns DSB-resistant HIV-1 viruses. As to the kind of experiment: Western blot of CA-SP1 cleavage in drug-resistant viruses. As to conditions: drug-resistant viruses in the presence of DSB. In kind it is cell-based. The procedure:
To determine if the resistant viruses were able to escape the CA-SP1 cleavage defect caused by DSB in wild-type virus, stocks of each virus grown in either the presence or absence of drug were analyzed by Western blot. Virus was pelleted through a 20% sucrose cushion from filtered culture supernatants that were collected 60 hr post-infection and 18 hr after the cells had been washed and fresh drug added. The viruses were lysed, and the amount of each virus was normalized by quantitating p24 levels in each sample.

In the next test the test system is SIVmac239 chimeric virus. As to the kind of experiment: Gag processing of SIVmac239 chimeric mutants with HIV-1 CA-SP1 residues (Western blot). In kind it is cell-based. As to conditions: SIV DM chimeric virus (printed SWV.DM), 1 μg/ml. An excerpt:
A panel of SIV chimeric constructs harboring various residues of NL4-3 CA-SP1 boundary region was generated using the SIVmac239 molecular clone by employing PCR and cloning procedures described above. SIV mac239 was used to generate the SIV DD and DE constructs. The SIV DD construct was used to generate SIV DM. Different SIV chimeric constructs were produced in the PCR by varying respective mutagenic upstream and downstream primers corresponding to each chimera (Table 1). Each of these parallel two adjacent PCR fragments was gel purified and directly used without phospohorylation treatment for a subsequent amplification with universal upstream primer (Primer. 31) and downstream primer (Primer 32). This product was gel purified, digested with BamHI and SbfI, and then ligated into the BamHI and SbfI sites of SIVmac239 proviral DNA clone. The proviral DNA clones were then screened by automatically sequencing using a Taq Dye Deoxy Terminator cycle Sequencer Kit (Applied Biosystems) individually using an internal primer (Primer. 39). Following the verification the mutations the proviral DNA clones were used for various future studies. […]
Residues A364 through V370 were inserted into the analogous position of the Gag SP1 domain in the DSB-resistant retrovirus SIV (Mac 239 isolate). […] Next, the effect of DSB on the Gag processing phenotype of each of the chimeric viruses was determined. […]

For another test, the system named is HIV. As to conditions: chronically-infected cells, Kanamoto et al.; cited from earlier work.

Each structure is given as a SMILES string. “Also recorded” adds a separate entry of the source. Read-outs that look alike come from different tables or passages of the source.

Take `C=C(C)[C@@H]1CC[C@]2(C(=O)O)CC[C@]3(C)[C@H](CC[C@@H]4[C@@]5(C)CC[C@H](OC(=O)CC(C)(C)C(=O)O)C(C)(C)[C@@H]5CC[C@]43C)[C@@H]12` [DSB, 3-O-(3′,3′-dimethylsuccinyl)betulinic acid]: at HIV-1 protease [1], the “effect on HIV-1 protease function” value is “no effect on protease function”. For the same molecule, the IC50 in test [2] (isolate 92HT599, co-receptor X4, PBMC, p24 day 7, read-out: IC50) amounted to 9.8 nM; in test [2] (isolate 92US723, co-receptor R5/X4, PBMC, p24 day 7, read-out: IC50), 4.6 nM; in test [2] (isolate 3401N*, co-receptor R5/X4, PBMC, p24 day 7, read-out: IC50), 12 nM; in test [2] (isolate 19101N*, co-receptor R5, PBMC, p24 day 7, read-out: IC50), 3.8 nM; in test [2] (isolate 22101N*, co-receptor R5/X4, PBMC, p24 day 7, read-out: IC50), 2.6 nM; in test [2] (isolate BZ167, co-receptor X4, PBMC, p24 day 7, read-out: IC50) it was 4 nM. Also, the concentration for half-maximal inhibition (IC50) in test [2] (isolate US1, co-receptor R5, PBMC, p24 day 7, read-out: IC50) was 5.6 nM; in test [2] (mean over the panel of primary isolates, read-out: IC50, Mean), 6.1 nM. Besides, the “% Decrease (β-galactosidase expression)” value in test [3] stood at 12%. In addition, the “virion morphology by EM” value in test [4] is “no mature viral particles were observed”. Moreover, the “effect on protease-mediated Gag protein processing” value at HIV-1 protease [5] is given as “did not disrupt protease-mediated Gag protein processing; also recorded: does not disrupt the activity of HIV-1 protease”. The “CA-SP1 product in virus (Western blot)” value in test [6] is “did not contain the CA-SP1 product”. Moreover, the Gag processing phenotype result in the test on SIVmac239 chimeric virus is given as “indicative of sensitivity to DSB”. In the test with HIV, the release of virus entry is recorded as “inhibits release of virus from chronically-infected cells”.
